Experimental data: patent US20240298636A1, “ANTIMICROBIAL AGENTS AND FILMS MADE THEREFROM” (YISSUM RESEARCH DEVELOPMENT COMPANY OF THE HEBREW …, priority 2021, published 2024)

Experiment: QCM-D analysis of peptide adsorption and Cu binding
Type: physicochemical
Conditions: for loaded mass/area of the peptide: 1.5 mg/mL in Tris buffer pH 8.5, after washing, Sauerbrey equation, 5th overtones
Description: Quartz Crystal Microbalance with Dissipation (QCM-D) Analysis: The peptides' adsorption and the metal-binding capabilities were studied using QCM-D (Q-sense, Biolin Scientific). The measurements were performed in a flow module E1 system with SiO2 sensors with a fundamental resonant frequency of 5 MHz (Qsense). The sensors were cleaned according to the supplier instructions. The experiments were performed under flow-through conditions using a digital peristaltic pump (IsmaTec Peristaltic Pump, IDEX). The peptide (1.5 mg/mL), control peptide (1.5 mg/mL), and CuCl2 (0.8 mg/mL) were dissolved in a filtered Tris buffer solution (pH=8.5, 10 mM). The solutions were injected circularly into the sensor crystal chamber at a rate of 0.1 mL/min. The peptide solution flowed for -4 h, the control peptide for −80 min, and the CuCl2 solution for -2 h. Between and after the coatings, the sensor was washed with the same Tris buffer solution. The adsorbed mass was calculated according to the Sauerbrey equation using the 5th overtones.

In the case of “NH2-(Phe)2-(His)6-OH [reference compound]”, the “loaded mass/area of the peptide” value was ~12 ng/cm^2.
For NH2-DOPA-(Phe)2-(His)6-OH [peptide], the “loaded mass/area of the peptide” value was ~96 ng/cm^2, the “loaded mass/area of Cu bound to the peptide layer” value (Cu(II) solution (CuCl2 0.8 mg/mL) after washing with the buffer) was ~9 ng/cm^2 and the “ratio of Cu ions per each peptide molecule” value (from loaded mass/area values) was ~2.
